The source of these data is patent publication US20200378956A1, “HUMAN MICROPHYSIOLOGICAL CELL SYSTEM FOR LIVER DISEASE CONVERSTION PROV 1-18585 AND PROV 2-19154” (EMULATE, INC., priority 2018, published 2020).

Where two headings read alike, the source gives them in different places.

One data set has as its system hepatocytes. Particulars: both the hepatocyte channel and the LSEC/Kupffer-cell channel.
Data set [1] deals with Human hepatocyte conventional plate cell culture. The data set can be described thus: Bosentan ALT release, conventional plate cell culture. Format: cell-based. The following applies: various concentrations of bosentan. An excerpt: (§1) FIG. 49A-B presents exemplary data showing the release of alanine transaminase (ALT) in response to various concentrations of bosentan. • FIG. 49A: Human hepatocyte microchip culture. • FIG. 49B: Human hepatocyte conventional plate cell culture.
(§2) These microfluidic systems also enable high-resolution, real-time imaging coupled with a capability for in vitro analysis of biochemical, genetic and metabolic activities, all in the functional context of living tissue. This technology can be used to evaluate tissue development, organ physiology and/or disease etiology. In the context of drug discovery, including safety and efficacy, this technology is especially valuable for the study of molecular mechanisms of action, prioritization of lead candidates, toxicity testing and biomarker identification. Bhatia et al., “Microfluidic organs-on-chips” Nature Biotechnology 2014, 32(8):760-772. […] See, FIGS. 54A-B.

In data set [2] the test system is Bile Salt Export Pump (BSEP, ABCB11). Briefly: Bosentan effect on co-transporter gene expression. Type of data set: cell-based. Particulars: after three (3) days of culture.
For data set [3], the system named is human hepatocyte microchips. Briefly: Bosentan ALT release, hepatocyte microchip culture. The following applies: various concentrations of bosentan. Format: cell-based.
Source text: as §1, §2

In data set [4] the test system is sodium/bile acid cotransporter. The data set can be described thus: Bosentan effect on co-transporter gene expression. The following applies: after three (3) days of culture. Type of data set: cell-based.
Source text: FIG. 50A-B presents exemplary data showing the effect of bosentan on co-transporter gene expression. • FIG. 50A: Sodium/bile co-transporter. • FIG. 50B: Bile Salt Export Pump (BSEP, ABCB11) co-transporter.
as §2

Data set [5] concerns tri-culture of hepatocytes and Kupffer cells. Particulars: for cholesterol release: ethanol 0.04-0.16% BAC.
A further data set deals with 2D models. The following applies: i.e., ~0.4%; cited from earlier work.
The test system of the next data set is Liver-Chip hepatocytes. Briefly: Ethanol / LPS dosing Liver-Chip study (FIG. 81-83).
Data set [6] deals with co-culture hepatocyte microchip. The data set can be described thus: Fructose-induced liver injury on co-culture hepatocyte microchip. Type of data set: cell-based. The procedure: The cell culture media effluent was analyzed for triglycerides, glycogen and glucose from both the top and bottom channels of the microchannel. See, Example 1. Cell imaging analysis of lipid droplet accumulation was performed with AdipoRed® and visualized with brightfield imaging.
The hepatocyte cells and endothelial cells were seeded and incubated as a co-culture in a hepatocyte microchip and samples were collected a specific time points. See, FIG. 32.
The specific media compositions were as follows: • Liver culture media: • Top Channel: DMEM (LG) 0% FBS, NEAA 1:200, ITSG 1:10,000, Vitamin C & dexamethasone
To each media, either a 1:1 glucose:fructose ratio (low fructose) or a 0.7:1.4 glucose:fructose ratio (high fructose) is added.

The subject of data set [7] is hepatocyte microchip co-culture system (e.g., Liver-Chip). The data set can be described thus: Fatty acid-induced steatosis in WEN/CSC media (Example IV). Format: cell-based. How it is done:
This example was performed on a hepatocyte microchip co-culture system (e.g., Liver-Chip). As a control condition, normal cell culture media “diet” (WEN media) was flowed through the top channel of the microchip, while a CSC 10% SFB was flowed through the bottom channel of the microchip. […] The following measurements were taken: i) Lipid drop staining with Nile Red®; ii) cholesterol quantification; iii) free fatty acid quantification; and iv) glucose quantification.

In data set [8] the test system is co-culture of hepatocytes and liver sinusoidal endothelial cells (LSECs). Briefly: In vitro NAFLD model, high fat diet on co-culture hepatocyte microchip. Type of data set: cell-based. How it is done:
For example, a co-culture of hepatocytes and liver sinusoidal endothelial cells (LSECs) cultured on a hepatocyte microchip were exposed to a high fat diet comprising of oleic acid ([…]) for up to two days. Accumulating fat droplets within these cultured hepatocytes were identified with AdipoRed® or NileRed® staining. […] See, FIG. 15. […] See, FIGS. 16A-C. Additionally, the number of lipid droplets were quantitated as well as the accompanying glucose level was determined. […] See, FIG. 18A. […] See, FIG. 18B. Photomicrographs of LSEC mitochondrial function correlate in a positive manner with twenty-four (24) hours of a high fat cell diet. See, FIG. 18C. Photomicrographs of hepatocyte mitochondrial function correlate in a positive manner after twenty-four (24) hours of a high fat cell diet. See, FIG. 18D. […] See, FIG. 19. […] The high fat diet exposure between 24-48 hours was also performed with and without the insulin-secretion agonist, Exendin. See, FIG. 60A. […] See, FIGS. 60B, 62C, 17A-B.

The subject of data set [9] is tri-culture of hepatocytes, liver sinusoidal endothelial cells (LSECs) and Kupffer cells. The data set can be described thus: In vitro NASH model, high fat diet and LPS on tri-culture hepatocyte microchip. Format: cell-based. How it is done: For example, a tri-culture of hepatocytes, liver sinusoidal endothelial cells (LSECs) and Kupffer cells were cultured on a hepatocyte microchip and exposed to a high fat diet comprising oleic acid. Subsequently, LPS (1 μg/ml ) was added to the high fat diet media to induce a Kupffer cell-mediated inflammatory response. […] See, FIG. 20B. When oleic acid exposure is supplemented with LPS the observance of stained lipid droplets decreases. See, FIG. 20C. […] See, FIG. 20D. […] See, FIG. 21A. […] See, FIG. 22A cf FIG. 22B. […] See, FIG. 23.

A further data set relates to hepatic stellate cells. Briefly: Fibrosis development in the Liver-Chip. The following applies: FIG. 46B. Type of data set: cell-based.
The test system of data set [10] is quadruple co-culture of hepatocytes, Kupffer cells, LSEC cells and Stellate cells. Briefly: Quadruple co-culture cell activation. Format: cell-based. The following applies: FIG. 13B.
Where [11] appears, read: liver culture media, 48 hours, low or high fructose.
Setting [12] is: oleic acid (0.1 to 0.5 μM) for up to two days.

Procedure for Liver-Chip hepatocytes: Oxidative stress was measured by staining of ROS-positive hepatocytes with MitoSOX™ Red (a fluorogenic dye specifically targeted to mitochondria in live cells. Oxidation of MitoSOX™ Red reagent produces red fluorescence.
Oxidation (red) is shown in the lower row stained with MitoSOX™ Red.

As to `Nc1c2c(nc3ccccc13)CCCC2` [Tacrine, tacrine], in the data set with hepatocytes, the IL-1-α result was “accumulation”, the IL-1beta result is recorded as “accumulation” and the IL-6 entry is given as “accumulation”.
Take `COc1ccccc1Oc1c(NS(=O)(=O)c2ccc(C(C)(C)C)cc2)nc(-c2ncccn2)nc1OCCO` [bosentan]: the results for the “secreted alanine transaminase (ALT) levels” value in [1] and in [3] were “lack of response” and “dose dependent increment”, respectively. For the same compound, the “BSEP transporter expression levels” value in data set [2] was “reduce sodium/bile acid cotransporter and BSEP transporter expression levels in a dose-dependent fashion”. Moreover, the “sodium/bile acid cotransporter expression levels” value in data set [4] was “reduce sodium/bile acid cotransporter and BSEP transporter expression levels in a dose-dependent fashion”.
Turning to `CCO` [ethanol], the lipid droplet accumulation result in [5] (0.16% ethanol, 120 hours of recovery (Day 7)) was “statistically significant as compared to vehicle control”. The cholesterol levels entry in [5] (after 48 h of recovery) was “back to normal”. Besides, the cholesterol release entry in data set [5] (24 h) is “increased”. Moreover, the cholesterol release result in [5] (48 h) is “intensified”. Besides, the “ethanol concentration significantly decreasing viability” value with 2D models is “greater than 100 mM”. Also, in the data set on Liver-Chip hepatocytes, the “ethanol concentration at which modifications in glucose release levels were observed” value is reported as “above 0.32%”. Also, the alcohol-induced steatosis result with Liver-Chip hepatocytes (after ethanol-free recovery) was “reverted”. Besides, the “cholesterol release (effluent)” value with Liver-Chip hepatocytes (ethanol at physiologically relevant BAC) is given as “increase of cholesterol release”. Moreover, in the data set on Liver-Chip hepatocytes (ethanol dosing), the cholesterol storage entry is “increased cholesterol and glycogen storage”; the glycogen storage result was “increased cholesterol and glycogen storage”. Besides, in the data set with Liver-Chip hepatocytes (ethanol dosing condition), the “hepatocyte viability (albumin as viability marker)” value is “sublethal”.
For the compound `O=C(CO)[C@@H](O)[C@H](O)[C@H](O)CO` [fructose], the extracellular glycogen levels entry is “No significant differences” in data set [6] (24 or 72 hours) and “dose-dependent decrease” in data set [6] (low or high fructose, liver media or intestinal effluent media, 48 hours). For the same compound, the triglyceride levels entry in [6] (24 or 72 hours, or intestinal effluent media) was “No significant differences”; in [6] (low or high fructose, liver media, 48 hours), “dose-dependent increase”. Besides, the “glucose in microchannel effluent” value was “observed to increase” in [6] (48 h, fructose media) and “no difference observed” in [6] (intestinal effluent culture media, with or without fructose). Besides, in data set [6] (setting [11]), the hepatocyte cell number entry is listed as “decreased hepatocyte cell number”. Besides, the hepatocyte cell size result in [6] (setting [11]) is “increased hepatocyte cell size”. The hepatocyte viability result in data set [6] (setting [11]) was “no effect on hepatocyte viability”. Further, the cholesterol levels result in [6] (liver media or intestinal effluent media, 24, 48 or 72 hours) is on record as “failed to significantly increase cholesterol levels”.
`CCCCCCCC/C=C\CCCCCCCC(=O)O` [oleic acid]: the LSEC morphology entry in data set [7] (1 μM Oleic acid) is given as “alterations in morphology”. In data set [7] (1 μM Oleic acid, 0, 40 and 64 hours), the “hepatocyte lipid droplet accumulation over time” value is reported as “progressive accumulation”. The “hepatocyte free fatty acids” value in data set [7] (1 μM Oleic acid, forty hours) was “shown to increase”. Also, the “lipid droplets in hepatocytes” value in [7] (high oleic acid concentration media, FIG. 7A) was “Increased concentration of lipid droplets”. Further, the LSEC morphological features result in [7] (oleic acid, 5 μM, 2 day exposure, FIG. 7B) is reported as “Morphological features indicative of injury/stress exposure”. Further, in data set [8] (high fat diet), the cholesterol concentration result is on record as “observed to increase”, the “free fatty acids concentration” value is on record as “observed to increase” and the “number of nuclei (hepatocyte proliferation or polyploidy)” value is listed as “increase in the number of nuclei”. In data set [8] (setting [12]), the “LSEC morphology by bright field imaging” value is given as “developed an injury morphology” and the “lipid droplets accumulation inside co-cultured hepatocytes” value is reported as “significant increase of lipid droplets accumulation”. In addition, the extracellular glucose concentration entry in data set [8] (oleic acid (0.1 to 0.5 μM), 48 hours) is “significantly higher”. Moreover, in [8] (two day high fat diet), the “cell viability (mitochondrial function)” value is “did not result in any significant reduction in cell viability” and the “oxidative stress markers, reactive oxygen species (ROS)” value is listed as “increase in reactive oxygen species”. Further, the “lipid droplet accumulation, cells proximal to channel inlet compared to channel outlet” value in data set [9] (48 hours of high fat diet of oleic acid) is “higher density of lipid droplet accumulation”. The “observable fat droplets in the hepatocytes” value in data set [9] (oleic acid only vs control) was “significant increase in observable fat droplets”.
Turning to “TGF-α: factor printed as activating hepatic stellate cells in FIG. 46B”, the “hepatic stellate cell activation” value in the data set on hepatic stellate cells is on record as “activation of hepatic stellate cells”.
As to “TGF-β: growth factor used for stellate cell activation”, the “stellate cell activation (α-SMA staining)” value in data set [10] was “Stellate cell activation”.
